In patent publication US8518912B2, “Phosphonic acid derivates and their use as P2Y12 receptor antagonists” (Actelion Pharmaceuticals Ltd., priority 2008, dated 2013) one finds IC50 data, which are given here for 7 molecules.

SMILES strings stand for the structures.

In this test the test system is ADP induced platelet aggregation. The experiment in a line: Light transmission platelet aggregation assay. In kind it is cell-based. To be noted: human platelet-rich plasma; ADP at 1-5 μM final concentration; 2 minutes preincubation at 37° C. On the procedure:
After obtaining informed consent, blood was obtained by vein puncture from healthy volunteers using a thrombin inhibitor as the anticoagulant. Platelet-rich plasma (PRP) was removed after centrifugation at 20° C. for 10 minutes at 200 g and allowed to equilibrate at 37° C. Part of the blood was centrifuged for 10 minutes at 5000 g to yield platelet poor plasma (PPP).
Light transmission platelet aggregation was carried out according to the method of Born & Cross (G. V. R. Born and M. J. Cross, J. Physiol. (1963), 168, 178-195) using a Chronolog lumiaggregometer with stirring (1000 rpm) at 37° C. PRP was placed into the cuvette and allowed to equilibrate at 37° C. for two minutes. In a first phase, the ADP concentration to give optimal extent of aggregation was determined for the PRP of each donor. In a second phase, PRP was incubated with inhibitors for 2 minutes at 37° C. prior to the addition of the agonist ADP at 1-5 μM final concentration. The change in light transmission, indicative of ongoing aggregation, was monitored during 5 minutes. The extent of platelet aggregation was calculated relative to light absorbance of PRP (not aggregated) and PPP (full aggregation).

In turn, `CCCCOC(=O)N1CCN(C(=O)[C@H](CCP(=O)(O)O)NC(=O)c2cc(N3CC[C@H](OC)C3)nc(-c3ccccc3)n2)CC1` [Example 5, 4-((S)-2-{[6-((S)-3-methoxy-pyrrolidin-1-yl)-2-phenyl-pyrimidine-4-carbonyl]-amino}-4-phosphono-butyryl)-piperazine-1-carboxylic acid butyl ester] came in with an IC50 of 0.001 µM.

In turn, `CCOC(=O)N1CCN(C(=O)[C@H](Cc2ccc(P(=O)(O)O)cc2)NC(=O)c2cc(N3CC[C@H](OC)C3)nc(-c3ccccc3)n2)CC1` [Example 59, 4-[(S)-2-{[6-((S)-3-Methoxy-pyrrolidin-1-yl)-2-phenyl-pyrimidine-4-carbonyl]-amino}-3-(4-phosphono-phenyl)-propionyl]-piperazine-1-carboxylic acid ethyl ester] gave an IC50 of 0.004 µM.

`CCCCOC(=O)N1CCN(C(=O)[C@H](CCC(=O)O)NC(=O)c2cc(N3CC[C@H](OC)C3)nc(-c3ccccc3)n2)CC1` [reference compound] came in with a half-inhibitory concentration (IC50) of 0.021 µM.

Molecule `CCOC(=O)N1CCN(C(=O)[C@H](CCC(=O)O)NC(=O)c2cc(N3CC[C@H](OC)C3)nc(-c3ccccc3)n2)CC1` [reference compound] came in with an IC50 of 0.032 µM.

As to `CCCCOC(=O)N1CCN(C(=O)[C@H](CC(=O)O)NC(=O)c2cc(N3CC[C@H](OC)C3)nc(-c3ccccc3)n2)CC1` [reference compound], the half-maximal inhibitory concentration (IC50) worked out at 0.091 µM.

`CCOC(=O)N1CCN(C(=O)[C@H](Cc2ccc(C(=O)O)cc2)NC(=O)c2cc(N3CC[C@H](OC)C3)nc(-c3ccccc3)n2)CC1` [reference compound] gave a 50% inhibitory concentration (IC50) of 0.226 µM.

Molecule `CCOC(=O)N1CCN(C(=O)[C@H](CC(=O)O)NC(=O)c2cc(N3CC[C@H](OC)C3)nc(-c3ccccc3)n2)CC1` [reference compound] returned a 50% inhibitory concentration (IC50) of 0.138 µM.
